Assay results: patent publication US6689778B2, “Inhibitors of Src and Lck protein kinases” (Vertex Pharmaceuticals Incorporated, priority 2001, dated 2004)

What was measured:
human Lck kinase = human Lck kinase (UniProt P06239); assay: Lck inhibition assay (radioactivity-based assay A or spectrophotometric assay B); assay type: biochemical; conditions: poly Glu-Tyr substrate; assay A or B not specified; read-out: Lck Activity (Ki class)
Procedure: The compounds were evaluated as inhibitors of human Lck kinase using either a radioactivity-based assay or spectrophotometric assay.
(§1) The compounds were assayed as inhibitors of full length bovine thymus Lck kinase (from Upstate Biotechnology, cat. no. 14-106) expressed and purified from baculo viral cells. Lck kinase activity was monitored by following the incorporation of ^33P from ATP into the tyrosine of a random poly Glu-Tyr polymer substrate of composition, Glu:Tyr=4:1 (Sigma, cat. no. P-0275). The following were the final concentrations of the assay components: 0.025 M HEPES, pH 7.6, 10 mM MgCl2, 2 mM DTT, 0.25 mg/ml BSA, 10 μM ATP (1-2 μCi ^33P-ATP per reaction), 5 mg/ml poly Glu-Tyr, and 1-2 units of recombinant human Src kinase. In a typical assay, all the reaction components with the exception of ATP were pre-mixed and aliquoted into assay plate wells. Inhibitors dissolved in DMSO were added to the wells to give a final DMSO concentration of 2.5%. The assay plate was incubated at 30° C. for 10 minutes before initiating the reaction with ^33P-ATP. After 20 min of reaction, the reactions were quenched with 150 μl of 10% trichloroacetic acid (TCA) containing 20 mM Na3PO4. The quenched samples were then transferred to a 96-well filter plate (Whatman, UNI-Filter GF/F Glass Fiber Filter, cat no. 7700-3310) installed on a filter plate vacuum manifold. Filter plates were washed four times with 10% TCA containing 20 mM Na3PO4 and then 4 times with methanol. 200 μl of scintillation fluid was then added to each well. The plates were sealed and the amount of radioactivity associated with the filters was quantified on a TopCount scintillation counter. The radioactivity incorporated was plotted as a function of the inhibitor concentration. The data was fitted to a competitive inhibition kinetics model to get the Ki for the compound.
(§2) The ADP produced from ATP by the human recombinant Lck kinase-catalyzed phosphorylation of poly Glu-Tyr substrate was quanitified using a coupled enzyme assay (Fox et al (1998) Protein Sci 7, 2249). In this assay one molecule of NADH is oxidised to NAD for every molecule of ADP produced in the kinase reaction. The disappearance of NADH can be conveniently followed at 340 nm.
(§3) The following were the final concentrations of the assay components: 0.025 M HEPES, pH 7.6, 10 mM MgCl2, 2 mM DTT, 5 mg/ml poly Glu-Tyr, and 50 nM of recombinant human Lck kinase. Final concentrations of the components of the coupled enzyme system were 2.5 mM phosphoenolpyruvate, 200 μM NADH, 30 μg/ml pyruvate kinase and 10 μg/ml lactate dehydrogenase.
(§4) In a typical assay, all the reaction components with the exception of ATP were pre-mixed and aliquoted into assay plate wells. Inhibitors dissolved in DMSO were added to the wells to give a final DMSO concentration of 2.5%. The assay plate was incubated at 30° C. for 10 minutes before initiating the reaction with 150 μM ATP. The absorbance change at 340 nm with time, the rate of the reaction, was monitored on a molecular devices plate reader. The data of rate as a function of the inhibitor concentration was fitted to competitive inhibition kinetics model to get the Ki for the compound.

human Src kinase = target: T1, human Src kinase (Homo sapiens, UniProt P12931); assay: Src inhibition assay (radioactivity-based assay A or spectrophotometric assay B); assay type: biochemical; conditions: recombinant human Src, poly Glu-Tyr substrate; assay A or B not specified
T1 construct: full length recombinant human Src kinase (from Upstate Biotechnology, cat. no. 14-117); purchased Upstate Biotechnology 14-117; host or cells: baculovirus-infected (insect) cells
T1 sequence (P12931 whole entry): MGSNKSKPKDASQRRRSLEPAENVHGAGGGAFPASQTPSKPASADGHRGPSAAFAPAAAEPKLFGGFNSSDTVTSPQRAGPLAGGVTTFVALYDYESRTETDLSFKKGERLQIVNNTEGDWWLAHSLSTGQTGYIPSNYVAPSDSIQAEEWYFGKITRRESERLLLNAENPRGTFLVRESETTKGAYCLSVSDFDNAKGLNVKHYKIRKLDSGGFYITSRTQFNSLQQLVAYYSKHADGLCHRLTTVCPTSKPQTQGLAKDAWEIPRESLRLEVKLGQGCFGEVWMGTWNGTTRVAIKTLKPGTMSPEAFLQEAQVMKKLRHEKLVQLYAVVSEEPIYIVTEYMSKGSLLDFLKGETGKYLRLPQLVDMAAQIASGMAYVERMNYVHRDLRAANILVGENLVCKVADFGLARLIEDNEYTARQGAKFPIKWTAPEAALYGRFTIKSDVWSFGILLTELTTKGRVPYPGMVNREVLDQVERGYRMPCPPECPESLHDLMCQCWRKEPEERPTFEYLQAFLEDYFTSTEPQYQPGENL
Procedure: The compounds were evaluated as inhibitors of human Src kinase using either a radioactivity-based assay or spectrophotometric assay.
as §1, with “length recombinant human Src” for “length bovine thymus Lck”, “no. 14-117)” for “no. 14-106)”, “cells. Src” for “cells. Lck”, “components: 0.05” for “components: 0.025”, “20 minutes” for “20 min”
as §2, with “Src” for “Lck”
as §3, with “DTT, 0.25” for “DTT, 5”, “and 25” for “and 50”, “human Src” for “human Lck”
as §4, with “100” for “150”, “compettive” for “competitive”

| SMILES | Ki (human Lck kinase) | Ki (human Src kinase) |
| --- | --- | --- |
| Cc1onc(C2CCCCC2)c1-c1ccnc(Nc2cccc(OCCCN3CCCC(O)C3)c2)n1 (centres unmarked) [IIIa-13] | < 0.1 µM | – |
| CCCOCc1cnc(Nc2cc(OC)cc(OC)c2)nc1-c1c(C2CCCCC2)noc1C [IIIb-29] | < 0.1 µM | – |
| Cc1onc(C2CCCCC2)c1-c1ccnc(Nc2cccc(OCCCCN3CCOCC3)c2)n1 [IIIa-24] | < 0.1 µM | – |
| Cc1onc(C2CCCCC2)c1-c1ccnc(Nc2cccc(OCCN3CCC(CO)CC3)c2)n1 [IIIa-6] | < 0.1 µM | < 0.1 µM |
| COc1cc(Nc2ncc(C#N)c(-c3c(C4CCCCC4)noc3C)n2)cc(OC)c1 [IIIb-27] | 0.1 to 1 µM | – |
| CCN1CCN(CCCCOc2cccc(Nc3nccc(-c4c(C5CCCCC5)noc4C)n3)c2)CC1 [IIIa-23] | < 0.1 µM | – |
| Cc1onc(C2CCCCC2)c1-c1ccnc(Nc2cccc(OCCCN3CCC[C@H]3CO)c2)n1 [IIIa-11] | < 0.1 µM | – |
| Cc1onc(C2CCCCC2)c1-c1ccnc(Nc2cccc(OC3CCCNC3)c2)n1 (centres unmarked) [IIIa-29] | < 0.1 µM | – |
| Cc1onc(C2CCCCC2)c1-c1ccnc(Nc2cccc(OCCCCN3CCC(O)CC3)c2)n1 [IIIa-19] | < 0.1 µM | – |
| Cc1onc(C2CCCCC2)c1-c1ccnc(Nc2cccc(OCCCCN3CCCCC3)c2)n1 [IIIa-26] | < 0.1 µM | – |
| Cc1onc(C2CCCCC2)c1-c1ccnc(Nc2cccc(OCCN3CCC[C@H]3CO)c2)n1 [IIIa-7] | < 0.1 µM | < 0.1 µM |
| Cc1onc(C2CCCCC2)c1-c1ccnc(Nc2cccc(OCCCN3CCN(CCO)CC3)c2)n1 [IIIa-12] | < 0.1 µM | – |
| Cc1onc(C2CCCCC2)c1-c1ccnc(Nc2cccc(NC(=O)CCN3CCCCC3)c2)n1 [Va-1] | < 0.1 µM | < 0.1 µM |
| Cc1onc(C2CCCCC2)c1-c1ccnc(Nc2cccc(OCC3CCCN(C(=O)OC(C)(C)C)C3)c2)n1 (centres unmarked) [IIIa-30] | > 1 µM | – |
| Cc1onc(C2CCCCC2)c1-c1ccnc(Nc2cccc(OCCN3CCC(O)CC3)c2)n1 [IIIa-5] | < 0.1 µM | < 0.1 µM |
| Cc1onc(C2CCCCC2)c1-c1ccnc(Nc2cccc(OCCN3CCN(CCO)CC3)c2)n1 [IIIa-8] | < 0.1 µM | < 0.1 µM |
| Cc1onc(C2CCCCC2)c1-c1ccnc(Nc2cccc(OCCOC3CCCCO3)c2)n1 (centres unmarked) [IIIa-1] | < 0.1 µM | < 0.1 µM |

| SMILES | Ki (human Lck kinase) | Ki (human Src kinase) |
| --- | --- | --- |
| COc1cc(Nc2ncc(C(=O)O)c(-c3c(C4CCCCC4)noc3C)n2)cc(OC)c1 [IIIb-24] | > 1 µM | – |
| Cc1onc(C2CCCCC2)c1-c1ccnc(Nc2cccc(OCCCN3CCCC3)c2)n1 [IIIa-16] | < 0.1 µM | – |
| CCc1onc(C2CCCCC2)c1-c1nc(Nc2cccc(O)c2)ncc1C [IIIb-28] | < 0.1 µM | < 0.1 µM |
| Cc1onc(C2CCCCC2)c1-c1ccnc(Nc2cccc(OCCN3CCCCC3)c2)n1 [IIIa-4] | < 0.1 µM | < 0.1 µM |
| Cc1onc(C2CCCCC2)c1-c1ccnc(Nc2cccc(OCCCCN3CCN(CCO)CC3)c2)n1 [IIIa-22] | < 0.1 µM | – |
| Cc1onc(C2CCCCC2)c1-c1ccnc(Nc2cccc(OCCN3CCOCC3)c2)n1 [IIIa-2] | < 0.1 µM | < 0.1 µM |
| Cc1onc(C2CCCCC2)c1-c1ccnc(Nc2cccc(OCCCN3CCNCC3)c2)n1 [IIIa-18] | < 0.1 µM | – |
| Cc1onc(C2CCCCC2)c1-c1ccnc(Nc2cccc(OCCCN3CCOCC3)c2)n1 [IIIa-15] | < 0.1 µM | – |
| Cc1onc(C2CCCCC2)c1-c1ccnc(Nc2cccc(OCC3CCCNC3)c2)n1 (centres unmarked) [IIIa-31] | < 0.1 µM | – |
| Cc1onc(C2CCCCC2)c1-c1ccnc(Nc2cccc(OCCCN3CCC(CO)CC3)c2)n1 [IIIa-10] | < 0.1 µM | – |
| COc1cc(Nc2ncc(C(N)=O)c(-c3c(C4CCCCC4)noc3C)n2)cc(OC)c1 [IIIb-26] | > 1 µM | – |
| Cc1onc(C2CCCCC2)c1-c1ccnc(Nc2cccc(OCCCN3CCCCC3)c2)n1 [IIIa-17] | < 0.1 µM | – |
| Cc1onc(C2CCCCC2)c1-c1ccnc(Nc2cccc(OC3CCCN(C(=O)OC(C)(C)C)C3)c2)n1 (centres unmarked) [IIIa-28] | > 1 µM | – |
| Cc1onc(C2CCCCC2)c1-c1ccnc(Nc2cccc(OCCN3CCCC3)c2)n1 [IIIa-3] | < 0.1 µM | < 0.1 µM |
| COc1cc(Nc2ncc(CO)c(-c3c(C4CCCCC4)noc3C)n2)cc(OC)c1 [IIIb-25] | > 1 µM | – |
| Cc1onc(C2CCCCC2)c1-c1ccnc(Nc2cccc(OCCCCN3CCCC3)c2)n1 [IIIa-25] | < 0.1 µM | – |
| Cc1onc(C2CCCCC2)c1-c1ccnc(Nc2cccc(OCCCN3CCC(O)CC3)c2)n1 [IIIa-9] | < 0.1 µM | – |
